Results taken from EP2065382A1, “CGRP antagonists” (Boehringer Ingelheim Pharma GmbH & Co. KG, priority 2007, dated 2009).

Target: T1, humanen CGRP-Rezeptor (Homo sapiens, UniProt O60894+Q16602)
T1 construct: SK-N-MC-Zellen werden in "Dulbecco's modified Eagle Medium" kultiviert; endogenous in cells; host or cells: SK-N-MC cells (membrane homogenate)
Experiment: Binding studies with SK-N-MC cells expressing the human CGRP receptor (125I-CGRP displacement on membrane homogenate)
Conditions: 50 pM 125I-Iodotyrosyl-CGRP, 180 min at room temperature
Description: A. Bindungsstudien mit (den humanen CGRP-Rezeptor exprimierenden) SK-N-MC-Zellen
SK-N-MC-Zellen werden in "Dulbecco's modified Eagle Medium" kultiviert. Das Medium konfluenter Kulturen wird entfernt. Die Zellen werden zweimal mit PBS-Puffer (Gibco 041-04190 M) gewaschen, durch Zugabe von PBS-Puffer, versetzt mit 0.02% EDTA, abgelöst und durch Zentrifugation isoliert. Nach Resuspension in 20 ml "Balanced Salts Solution" [BSS (in mM): NaCl 120, KCl 5.4, NaHCO3 16.2, MgSO4 0.8, NaHPO4 1.0, CaCl2 1.8, D-Glucose 5.5, HEPES 30, pH 7.40] werden die Zellen zweimal bei 100 x g zentrifugiert und in BSS resuspendiert. Nach Bestimmung der Zellzahl werden die Zellen mit Hilfe eines Ultra-Turrax homogenisiert und für 10 Minuten bei 3000 x g zentrifugiert. Der Überstand wird verworfen und das Pellet in Tris-Puffer (10 mM Tris, 50 mM NaCl, 5 mM MgCl2, 1 mM EDTA, pH 7.40), angereichert mit 1% Rinderserum-Albumin und 0.1% Bacitracin, rezentrifugiert und resuspendiert (1 ml / 1000000 Zellen). Das Homogenat wird bei -80°C eingefroren. Die Membranpräparationen sind bei diesen Bedingungen für mehr als 6 Wochen stabil.
Nach Auftauen wird das Homogenat 1:10 mit Assay-Puffer (50 mM Tris, 150 mM NaCl, 5 mM MgCl2, 1 mM EDTA, pH 7.40) verdünnt und 30 Sekunden lang mit einem Ultra-Turrax homogenisiert. 230 µl des Homogenats werden für 180 Minuten bei Raumtemperatur mit 50 pM ^125I-Iodotyrosyl-Calcitonin-Gene-Related Peptide (Amersham) und ansteigenden Konzentrationen der Testsubstanzen in einem Gesamtvolumen von 250 µl inkubiert. Die Inkubation wird durch rasche Filtration durch mit Polyethylenimin (0.1%) behandelte GF/B-Glasfaserfilter mittels eines Zellharvesters beendet. Die an Protein gebundene Radioaktivität wird mit Hilfe eines Gammacounters bestimmt. Als nichtspezifische Bindung wird die gebundene Radioaktivität nach Gegenwart von 1 µM humanem CGRP-alpha während der Inkubation definiert.
Die Analyse der Konzentrations-Bindungskurven erfolgt mit Hilfe einer computergestützten nichtlinearen Kurvenanpassung.

T1 sequence (Q16602 23-461): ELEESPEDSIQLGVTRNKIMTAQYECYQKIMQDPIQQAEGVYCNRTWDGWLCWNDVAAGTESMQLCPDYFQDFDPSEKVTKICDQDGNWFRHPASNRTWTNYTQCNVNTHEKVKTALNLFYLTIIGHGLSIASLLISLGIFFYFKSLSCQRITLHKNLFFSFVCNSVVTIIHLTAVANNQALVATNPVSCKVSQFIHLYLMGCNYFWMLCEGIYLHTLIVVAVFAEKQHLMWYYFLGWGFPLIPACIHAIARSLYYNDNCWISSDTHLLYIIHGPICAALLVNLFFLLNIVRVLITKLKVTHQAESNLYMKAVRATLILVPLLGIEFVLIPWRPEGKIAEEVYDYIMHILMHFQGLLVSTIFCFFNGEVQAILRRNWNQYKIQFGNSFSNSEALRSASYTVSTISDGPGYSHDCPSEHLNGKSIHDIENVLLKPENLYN
T1 sequence (O60894 27-148): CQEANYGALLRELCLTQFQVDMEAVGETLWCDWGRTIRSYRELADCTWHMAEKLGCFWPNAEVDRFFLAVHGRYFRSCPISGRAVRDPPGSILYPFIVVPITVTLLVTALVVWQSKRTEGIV

Structure (SMILES)	Ki
O=C(c1cc(N2CCC(n3c(=O)[nH]c4ncccc43)CC2)ncn1)c1c[nH]c2ccccc12 [(1)]	120 nM
COc1ccc2c(c1)CCN(C1CCN(c3cc(C(=O)c4cn(C)c5ccccc45)ncn3)CC1)C(=O)N2 [(4)]	4 nM
Cn1cc(C(=O)c2cc(N3CCC(n4c(=O)[nH]c5ccccc54)CC3)ncn2)c2ccccc21 [(9)]	251 nM
Cn1cc(C(=O)c2cc(N3CCC(n4cc(-c5ccccc5)[nH]c4=O)CC3)ncn2)c2ccccc21 [(14)]	6 nM
Cn1cc(C(=O)c2cc(N3CCC(n4c(=O)[nH]c5ncccc54)CC3)ncn2)c2ccc(F)cc21 [(21)]	2 nM
O=C(c1cc(N2CCC(n3c(=O)[nH]c4ncccc43)CC2)ncn1)c1cn(CCCN2CCCCC2)c2ccccc12 [(25)]	16 nM
CN(C)CCCn1cc(C(=O)c2cc(N3CCC(n4c(=O)[nH]c5ncccc54)CC3)ncn2)c2ccccc21 [(42)]	6 nM

Same assay, conditions: 50 pM 125I-Iodotyrosyl-CGRP, 180 min at room temperature, read-out: Ki

Ki	Structure (SMILES)
5 nM	Cn1cc(C(=O)c2cc(N3CCC(n4c(=O)[nH]c5ncccc54)CC3)ncn2)c2ccccc21 [(2)]
25 nM	Cc1ccc2c(C(=O)c3cc(N4CCC(n5c(=O)[nH]c6ncccc65)CC4)ncn3)cn(C)c2c1 [(30)]
